Source: patent US5441968A, “Therapeutically active fluoro substituted benzimidazoles” (priority 1993, dated 1995)

Legend:
[1] = Chemical stability in aqueous buffer solution at different pH values; format: physicochemical; details: for Chemical stability at pH2 t 10%: pH 2, 37° C., time after which 10% has decomposed
Description: The chemical stability of the compounds of the invention has been followed kinetically at low concentration at 37° C. in aqueous buffer solution at different pH values. The results in Table 3 show the half life (t 1/2) at pH 7, that is the time period after which half the amount of the original compound remains unchanged, and t10% at pH 2, that is the time period after which 10% of the original compound has decomposed.

gastric acid secretion = assay: Inhibition of gastric acid secretion in the conscious dog; format: in vivo, dog (Harrier); details: for Inhibition of acid secretion: id
Description: The potency for inhibition of acid secretion is measured in the male rat and the dog, both intravenously and intraduodenally. When it comes to relevance of the animal test data for potency of a given compound in man for the present type of compounds, it is believed that potency in man will correspond to a level somewhere between what is measured in the male rat and what is measured in the dog.
Inhibition of Gastric Acid Secretion and Bioavailability in the Conscious Dog
Harrier dogs of either sex were used. They were equipped with a duodenal fistula for the administration of test compounds or vehicle and a cannulated ventricular fistula for the collection of gastric secretions.
Before secretory tests the animals were fasted for about 18 h but water was freely allowed. Gastric acid secretion was stimulated by a 4 h infusion of histamine dihydrochloride (12 ml/h) at a dose producing about 80% of the individual maximal secretory response, and gastric juice collected in consecutive 30-min fractions. Test substance or vehicle was given id or iv 1 h after starting the histamine infusion, in a volume of 0.5 ml/kg body weight. The acidity of the gastric juice samples were determined by titration to pH 7.0, and the acid output calculated. The acid output in the collection periods after administration of test substance or vehicle were expressed as fractional responses, setting the acid output in the fraction preceding administration to 1.0. Percentage inhibition was calculated from fractional responses elicited by test compound and vehicle. ED50 values were obtained by graphical interpolation on log dose-response curves, or estimated from single-dose experiments under the assumption of the same slope of the dose-response curve for all test compounds. All results reported are based on acid output 2 h after dosing.

COc1ccnc(C[S+]([O-])c2nc3c(F)cccc3n2COC(=O)OCc2ccccc2)c1 (stereo not drawn) [Example 1, 4-fluoro-2-[[(4-methoxy-2-pyridinyl)methyl]sulfinyl]-1H-benzimidazole-1-ylmethyl benzyl carbonate]
Chemical stability at pH2 t 10% [1]: 2 h

CCOC(=O)OCn1c([S+]([O-])Cc2cc(OC)ccn2)nc2c(F)cccc21 (stereo not drawn) [Example 2, 4-fluoro-2-[[(4-methoxy-2-pyridinyl)methyl]sulfinyl] -1H-benzimidazole-1-ylmethyl ethyl carbonate]
Chemical stability at pH2 t 10% [1]: 3 h | half-life ([1]; pH 7, 37° C., read-out: Chemical stability at pH 7 t1/2 (converted)): 16 h | ED50 (gastric acid secretion; Canis lupus familiaris, dog, id administration, histamine-stimulated, acid output 2 h after dosing): 1.3 µmol/kg | Inhibition of acid secretion (gastric acid secretion; Dog 1, 1.5 μmol/kg): 55% | Inhibition of acid secretion (gastric acid secretion; Dog 2, 1.5 μmol/kg): no effect
